Assay results taken from US8492391B2, “Substituted 6-(2-hydroxybenzylamino)purine derivatives, their use as medicaments and compositions containing these derivatives” (Univerzita Palackeho V Olomouci, priority 2009, dated 2013).

Biological target: T1, CDK9/cyclin T (Homo sapiens, UniProt P50750)
T1 construct: made in house; host or cells: Sf9 insect cells, baculovirus co-infection
Test: CDK9/cyclin T kinase inhibition assay
Type: biochemical
Details: kinase inhibitory activity, 15 μM ATP, (YSPTSPS)3 peptide substrate
Protocol: Selected compounds were tested for CDK1/cyclin B, CDK2/cyclin E, CDK5/p25, CDK7/cyclin H and CDK9/cyclin T inhibitory activity to determine the basic relationships between their structure and the inhibitory activity. Cdk/cyclin complexes were expressed in Sf9 cells co-infected with appropriate baculoviral construct. The cells were harvested 70 hours post infection in lysis buffer (50 mM Tris pH 7.4, 150 mM NaCl, 5 mM EDTA, 20 mM NaF, 1% Tween 20, protease inhibitors) for 30 min on ice and the soluble fraction was recovered by centrifugation at 14.000 g for […]. The protein extract was stored at −80° C. until use. The final point test system for kinase activity measurement was used to carry out experiments on the kinetics under linear conditions. […] ATP and tested compound in a final volume of 20 μl, all in reaction buffer: 50 mM Hepes pH 7.4, 10 mM MgCl2, 5 mM EGTA, 10 mM 2-glycerolphosphate, 1 mM NaF, 1 mM DTT and protease inhibitors. After 30 min, the incubations were stopped by adding 5% H3PO4 and then the proteins were separated by phosphocellulose binding. The measurement of kinase inhibition employed the digital imaging analyzer BAS 1800. The kinase activity was expressed as a percentage of maximum activity and the IC50 value was determined by graphic analysis. The kinase activity is expressed as a percentage of maximum activity (FIG. 1).

T1 sequence (P50750 whole entry, species assumed): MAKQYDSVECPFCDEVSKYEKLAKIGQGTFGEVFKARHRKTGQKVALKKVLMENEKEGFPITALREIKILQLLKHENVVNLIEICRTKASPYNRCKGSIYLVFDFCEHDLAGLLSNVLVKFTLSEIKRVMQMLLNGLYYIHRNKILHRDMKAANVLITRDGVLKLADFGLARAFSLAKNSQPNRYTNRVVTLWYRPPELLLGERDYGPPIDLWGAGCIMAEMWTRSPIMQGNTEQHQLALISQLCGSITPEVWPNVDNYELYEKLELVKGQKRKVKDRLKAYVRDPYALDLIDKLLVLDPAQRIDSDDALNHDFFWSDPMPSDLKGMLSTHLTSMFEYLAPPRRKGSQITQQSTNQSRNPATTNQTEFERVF
T1 sequence (O60563 whole entry partner, species assumed): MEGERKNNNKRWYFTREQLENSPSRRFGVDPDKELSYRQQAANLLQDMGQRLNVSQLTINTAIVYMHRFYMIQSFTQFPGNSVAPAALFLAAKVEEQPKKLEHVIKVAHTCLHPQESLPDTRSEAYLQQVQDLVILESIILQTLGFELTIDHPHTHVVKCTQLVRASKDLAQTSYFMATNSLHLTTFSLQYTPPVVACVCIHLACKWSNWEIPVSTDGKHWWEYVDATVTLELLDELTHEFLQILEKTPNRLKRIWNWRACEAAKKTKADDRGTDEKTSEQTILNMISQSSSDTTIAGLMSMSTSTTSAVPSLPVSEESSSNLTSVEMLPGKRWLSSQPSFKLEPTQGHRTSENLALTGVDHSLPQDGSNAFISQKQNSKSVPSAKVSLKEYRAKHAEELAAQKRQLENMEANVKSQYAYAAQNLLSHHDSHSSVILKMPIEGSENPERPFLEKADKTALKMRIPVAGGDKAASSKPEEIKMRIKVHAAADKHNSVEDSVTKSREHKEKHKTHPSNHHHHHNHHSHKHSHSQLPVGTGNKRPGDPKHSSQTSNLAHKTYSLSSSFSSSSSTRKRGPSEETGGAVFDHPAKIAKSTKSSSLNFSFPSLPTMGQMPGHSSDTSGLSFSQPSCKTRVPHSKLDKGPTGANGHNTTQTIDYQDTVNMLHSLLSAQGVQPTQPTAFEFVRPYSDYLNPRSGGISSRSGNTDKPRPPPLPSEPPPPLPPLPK

With `CCC(CO)Nc1nc(NCc2cccc(OC)c2O)c2ncn(C(C)C)c2n1` (racemic) [Compound 128, (RS)-2-({6-[(2-hydroxy-3-methoxybenzyl)amino]-9-isopropyl-9-H-purin-2-yl}amino)butan-1-ol] the IC50 was 0.04 µM.
